# In patent US20250197671A1, “IRRADIATION-CROSSLINKABLE SILICONE COMPOSITION COMPRISING PT(OCTANE-2,4-DIONE)2 AS A CATALYST” (ELKEM SILICONES FRANCE SAS, priority 2022, published 2025):
# Read-outs that look alike come from different tables or passages of the source.
# Columns and labels:
# [1] = Photo-DSC of silicone composition (time and value of thermal peak); settings: 365 nm, 14.4 mW/cm^2, 10 ppm Pt, N2 purge
# [2] = H361-CMR Reproductive Toxicity Category 2; cited from earlier work
# [3] = Solubility of the catalyst in hexamethyldisiloxane (HMDSO); assay type: physicochemical
# Text: Continue additions until obtaining a clear medium, without observing precipitate at the end of stirring.
# [4] = Solubility / appearance of catalyst in the silicone composition; settings: Photo-DSC formulation, organopolysiloxane A + B, 10 ppm Pt (Example 3)
# [5] = Crosslinking time of silicone composition under UV LED irradiation (catalyst activity); settings: UV LED 365 nm, 10 ppm Pt, SiH/Si(vinyl)=2:1, bulk setting time
# Description: Irradiation: UV LED lamp with a wavelength of 365 nm.
# The crosslinking time is measured. It corresponds to the bulk setting time of the system (the bar magnet can no longer stir the system).
# [6] = Stability of the catalysed silicone solution without irradiation; assay type: physicochemical; settings: with organopolysiloxanes A and B, 10 ppm Pt
# Description: A solution comprising a catalyst C1 or C5, together with organopolysiloxanes A and B was prepared according to example 2 (concentration in metal Pt of 10 ppm).
# The stability of the solutions was then determined.
# [7] = system: Salmonella typhimurium TA 1535, TA 1537, TA 98, TA 100; experiment: Ames test (OECD test 471, Bacterial Reverse Mutation Test); assay type: cell-based; settings: with or without metabolic activation; 5000, 1500, 150 and 50 μg/plate
# Description: (§1) In fact, this compound was analyzed according to the Ames test: the Ames test is a widely used method which uses bacteria for verifying whether a given chemical product may cause DNA mutations in the tested organism.
# (§2) Toxicity test (Ames Test, according to the OECD guidelines for chemical product tests-test 471: Bacterial Reverse Mutation Test): Solutions were prepared with Pt(octane-2,4-dione)2.
# [8] = system: Escherichia coli WP2 (uvrA-) (pKM 101); experiment: as above; assay type: cell-based; settings: with or without metabolic activation; 5000, 1500, 150 and 50 μg/plate
# Description: as §1, §2
Compound,Time to arrive at the thermal peak [1] [s],Value of the thermal peak (mW/s) [1] [mW/s],Appearance [4],further results
"CC(=O)/C=C(/C)O.CC(=O)/C=C(/C)O.[Pt] [Catalyst C2, Pt(acac)2]",140,0.65,–,reproductive toxicity classification [2]: suspected of damaging fertility or the unborn child
"CCC(=O)C=C(CC)[O][Pt][O]C(=CC(=O)CC)CC [Catalyst C3, Pt(heptane-3,5-dione)2]",240,0.53,Clear yellow,Solubility [3]: 2500 ppm Pt
"CCC(=O)C=C(C)[O][Pt][O]C(C)=CC(=O)CC [Catalyst C4, Pt(hexane-2,4-dione)2]",235,0.47,Hazy yellow,Solubility ([3]; in hexamethyldisiloxane (HMDSO) at 20° C.): 500 ppm Pt
"Pt(octane-2,4-dione)2 [C1 Trans:cis ratio = 11:89]",–,–,–,Crosslinking time [5]: 1 min
"Pt(octane-2,4-dione)2 [Catalyst C1]",–,–,–,Solubility [3]: 7000 ppm Pt; time solution remained stable ([6]; exposed to ambient light): over 7 hours; time solution remained stable ([6]; protected from light): over 20 days; mutagenic modification (Ames test) [7]: did not induce any mutagenic modification; mutagenic modification (Ames test) [8]: did not induce any mutagenic modification
"cis-Pt(octane-2,4-dione)2 [C1 Cis]",140,0.85,Soluble clear,–
"trans Pt(octane-2,4-dione)2 [C1 Trans]",140,0.78,Soluble clear,–
